Converted amounts (≈) assume the structure as drawn.
System: M. tuberculosis No. 74
Test: In vitro antibacterial activity (2): MIC by broth dilution method
Format: cell-based, Mycobacterium tuberculosis
Details: rifampicin-resistant strain; for MIC: Mycobacterium tuberculosis, NO.74, Middlebrook 7H9 broth, 35° C. for 10–21 days, read-out: MICs against Mycobacterium tuberculosis, M. tuberculosis No. 74

Structure (SMILES) | MIC | antibacterial activity against M. tuberculosis No. 74 (in words)
CO[C@H]1/C=C/O[C@@]2(C)Oc3c(C)c(O)c4c(O)c(c(/C=N/N5CCN(C)CC5)c(O)c4c3C2=O)NC(=O)/C(C)=C\C=C\[C@H](C)[C@H](O)[C@@H](C)[C@@H](O)[C@@H](C)[C@H](OC(C)=O)[C@@H]1C [rifampicin, reference compound] | 128 µg/mL (≈ 156 µM) | –
CO[C@H]1[C@@H](O)[C@H](n2ccc(=O)[nH]c2=O)O[C@@H]1[C@@H](O[C@H]1OC(C(=O)Nc2ccc(F)c(F)c2)=C[C@H](O)[C@@H]1O)C(N)=O [Exemplification Compound No. 3712] | 8 µg/mL (≈ 14 µM) | excellent antibacterial activity
